Source: patent US6649647B1, “Trioxane derivatives” (priority 1998, dated 2003)

What was measured:
Format in all cases: cell-based
[1] = tested on: Rat 6 subclone of the immortalized F2408 embryo cell line (R6); experiment: Screening for cytotoxicity, cell count by Coulter Counter, R6 cells; details: for LD50 (Day 3) R6: day 3 after addition; for LD50 (Day 6) R6: day 6 after addition
Experimental: (§1) Compounds of the invention were screened against Rat 6 subclone of the immortalized F2408 embryo cell line, and Rat 6 (R6T24) cells transfected and transformed by a c-H-ras oncogene. The screening involved placing the R6 and R6T24 cell lines plated at 10^3 cells per well into a 12-well microtiter culture plate for 24 hours. The compounds were added at final concentrations from 0.1-100 μM, and cells were trypsized and counted by Coulter Counter at day 3 and day 6 after the addition. Untreated cells were assigned a survival value of 100%.

[2] = tested on: Rat 6 (R6T24) cells transfected and transformed by a c-H-ras oncogene; experiment: Screening for cytotoxicity, cell count by Coulter Counter, R6T24 cells; details: R6T24 cell line; for LD50 (Day 3) R6T24: day 3 after addition; for LD50 (Day 6) R6T24: day 6 after addition
Experimental: as §1

[3] = tested on: human colon cancer cell line SW 480; experiment: Growth inhibition assay (MTT), SW 480; details: Table VI, 6 days incubation
Experimental: (§2) As another example of evaluation of cytotoxicity, cancer cell lines were also used for a growth inhibition assay. The human colon cancer cell lines SW 480 and HT 29 and the murine melanoma cell line B16F10 were used. […] After confluent growth, the cells were trypsinated and resuspended in RPMI plus 10% FCS to a cell concentration of 50000 cells per ml in case of colon cancer cell lines and 20000 in case of B16F10. 100 μl of this cell suspension were transferred in each well of a 96 well microtiter plate and incubated for 1 day at 37° C. in a CO2-incubator. Subsequently, further 100 μl RPMI medium and 1 μl of a DMSO solution, containing the artemisinin derivatives were added. The growth inhibition was estimated after 6 days incubation at 36° C. using the MTT assay.
(§3) 25 μl MTT solution (3-(4,5-dimethylthiazol-2-yl)-2,5-diphenyltetrazolium-bromid) of a starting concentration of 5 mg/ml H2O were added and incubated at 37° C. for 5 h. Subsequently, 100 μl iso-propanol per well were added. After 15 min incubation 100 μl H2O were added. After 30 min shaking, the extinction was measured at 595 nm using a ELISA-Multiplate Reader.

[4] = tested on: human colon cancer cell line HT 29; experiment: Growth inhibition assay (MTT), HT 29; details: Table VI, 6 days incubation
Experimental: as §2, §3

[5] = tested on: murine melanoma cell line B16F10; experiment: Growth inhibition assay (MTT), B16F10; details: Table VI, 6 days incubation
Experimental: as §2, §3

DNA within the cell = experiment: DNA comet assay; details: cells after 3 or 6 day treatment
From the text: In this technique, cells are embedded in agarose gel on a frosted slide after 3 or 6 day treatment, the cells are then lysed and submitted to electrophoresis. The DNA was stained after electrophoresis by ethidium bromide and images of the DNA “comets” were obtained by using an image analysis software package.

| Molecule | LD50 (Day 3) R6 ([1]; Table V) | LD50 (Day 6) R6 ([1]; Table V) | LD50 (Day 3) R6 ([1]; Table VA) | LD50 (Day 6) R6 ([1]; Table VA) | LD50 (Day 3) R6T24 ([2]; Table V) | LD50 (Day 6) R6T24 ([2]; Table V) | LD50 (Day 3) R6T24 ([2]; Table VA) | LD50 (Day 6) R6T24 ([2]; Table VA) | LD50 SW 480 [3] | LD50 HT 29 [4] | LD50 B16F18 [5] | DNA damage in the DNA comet assay (DNA within the cell) |
| --- | --- | --- | --- | --- | --- | --- | --- | --- | --- | --- | --- | --- |
| CC1CCC2C(C)C(c3ccccc3)OC3OC4(C)CCC1C32OO4 (stereo not drawn) [Example 2, 10β-(phenyl)dihydroartemisinin] | 0.61 µM | 0.475 µM | 0.61 µM | 0.475 µM | 3.05 µM | 0.54 µM | 3.05 µM | 0.54 µM | 300 nM | 800 nM | 500 nM | – |
| COc1ccc(C2OC3OC4(C)CCC5C(C)CCC(C2C)C35OO4)c(OC)c1 (stereo not shown) [Example 4, 10-(2′,4′-dimethoxyphenyl)dihydroartemisinin] | 1.37 µM | 0.29 µM | 1.37 µM | 0.29 µM | 1.09 µM | 0.13 µM | 1.09 µM | 0.13 µM | – | – | – | strong DNA damage |
| C[C@@H]1CC[C@H]2[C@@H](C)C(Nc3ccccc3)O[C@@H]3O[C@@]4(C)CC[C@@H]1[C@]32OO4 (stereo partly shown) [Example 30] | 0.31 µM | 0.26 µM | 0.31 µM | 0.26 µM | 0.24 µM | 0.26 µM | 0.24 µM | 0.26 µM | 100 nM | 600 nM | 400 nM | – |
| C[C@@H]1CC[C@H]2[C@@H](C)C(c3cc4ccccc4c4ccccc34)O[C@@H]3O[C@@]4(C)CC[C@@H]1[C@]32OO4 (stereo partly shown) [Example 56] | – | – | 0.38 µM | 0.26 µM | – | – | 0.24 µM | 0.21 µM | 200 nM | 300 nM | 300 nM | – |
| CC1CCC2C(C)C(OCC(F)(F)F)OC3OC4(C)CCC1C32OO4 (stereo not drawn) [Example 11, 10β-[(2′,2′,2′-trifluoroethyl)oxy]-dihydroartemisinin] | 1.56 µM | 0.87 µM | 1.56 µM | 0.87 µM | 3.31 µM | 0.39 µM | 3.31 µM | 0.39 µM | 500 nM | 1500 nM | 500 nM | – |
| 10α and β-[(2′-naphthylmethyl)oxy]dihydroartemisinin [Example 13α] | – | – | 0.14 µM | 0.037 µM | – | – | 0.12 µM | 0.02 µM | 200 nM | 500 nM | 300 nM | – |
| CC1CCC2C(C)C(Oc3ccnc4cc(C(F)(F)F)ccc34)OC3OC4(C)CCC1C32OO4 (stereo not drawn) [Example 12, 10β-[4′-(7′-trifluoromethyl-quinolinoxy)]dihydroartemisinin] | – | – | – | – | – | – | – | – | 150 nM | 2000 nM | 300 nM | – |
| C[C@@H]1CC[C@H]2[C@@H](C)C(=O)N(Cc3ccccc3F)[C@@H]3O[C@@]4(C)CC[C@@H]1[C@@]23OO4 [Example 15, 11-aza-N-(2-fluorobenzyl)artemisinin] | 22.70 µM | >50.00 µM | >50 µM | >50 µM | >50.00 µM | 1.69 µM | 22.7 µM | 1.69 µM | 200 nM | 1500 nM | 300 nM | – |
| 10α and β-[(2′-naphthylmethyl)oxy]dihydroartemisinin [Example 13β] | – | – | – | – | – | – | – | – | 300 nM | 600 nM | 400 nM | – |
